The conditions of data set [1]: cited from earlier work.
For data set [2] the following is noted: in vivo; cited from earlier work.
The conditions of data set [3]: cited from earlier work. The source holds these as a separate data set.
For data set [4] the following is noted: in vivo; cited from earlier work. The source holds these as a separate data set.
A short description of data set [5]: pharmacokinetics and bioavailability after intravenous and topical administration. The class given is in vivo, Goetingen mini-pigs. Particulars: intravenous administration at 1 mg/kg.

Structures can show the parent of a compound that is named as a salt. Where two headings read alike, the source gives them in different places.

For `CCCCNc1ccc(C(=O)OCCN(C)C)cc1` [Tetracaine Hydrochloride], in data set [1], the Water solubility is 150 mg/mL.

As to `CCN(CC)CC(=O)Nc1c(C)cccc1C` [lidocaine, Lidocaine], the “absorbed from the gastrointestinal tract” value in data set [2] is reported as 30-40%. Moreover, the “excreted by the kidneys unchanged” value in data set [2] is 10%. The “extension of the effect” value in data set [3] (addition of epinephrine (5 μg/ml)) is reported as 50%. Besides, the duration of effect is 5 to 6 min in data set [3] (aerosol), “up to 4 hours” in data set [3] (epidural administration), 30 to 60 min in data set [3] (gel) and 30 to 60 min in data set [3] (infiltration anesthesia). Besides, the onset of effect was 1 min in data set [3] (aerosol), 5 to 15 min in data set [3] (epidural administration), 2 to 3 min in data set [3] (gel) and 0.5 to 1 min in data set [3] (infiltration anesthesia). The “duration of anti-arrhythmic effect” value was 30 to 50 min in data set [3] (endotracheal administration) and 10 to 20 min in data set [3] (i.v. administration). The “onset of anti-arrhythmic effect” value was 10 to 15 s in data set [3] (endotracheal administration) and 45 to 90 s in data set [3] (i.v. administration). In addition, in data set [3] (endotracheal administration), the “time to peak anti-arrhythmic effect” value was 1 to 2 min.

In the case of `CCCCNc1ccc(C(=O)OCCN(C)C)cc1` [tetracaine, Tetracaine], the hydrolysis in plasma entry in data set [4] is “rapid”. For the same compound, in data set [5], the “clearance (printed: purified)” value is listed as “highly purified” and the “distribution (printed: dispersed)” value is reported as “highly dispersed”.

Source of the values: patent US12201621B2, “Base and pharmaceutical composition containing it” (BIOTTS S.A., priority 2019, dated 2025).
